Results reported in patent publication US20260034119A1, “5-METHOXY-N,N-[…][…], THEIR […], AND METHODS FOR TREATMENT OF NEUROLOGICAL, […], AND SUBSTANCE USE DISORDERS” (priority 2023, published 2026).
Read-outs that look alike come from different tables or passages of the source.

Tests used:
human 5-HT1A [1] = biological target: T1, human 5-HT1A (Homo sapiens, UniProt P08908); test: 5-HT1A-mediated cAMP reduction assay (GloSensor, HEK293-T); details: for Efficacy as %5HT 5-HT1A cAMP: Table 6, commercial ligands
T1 sequence (P08908 1-422): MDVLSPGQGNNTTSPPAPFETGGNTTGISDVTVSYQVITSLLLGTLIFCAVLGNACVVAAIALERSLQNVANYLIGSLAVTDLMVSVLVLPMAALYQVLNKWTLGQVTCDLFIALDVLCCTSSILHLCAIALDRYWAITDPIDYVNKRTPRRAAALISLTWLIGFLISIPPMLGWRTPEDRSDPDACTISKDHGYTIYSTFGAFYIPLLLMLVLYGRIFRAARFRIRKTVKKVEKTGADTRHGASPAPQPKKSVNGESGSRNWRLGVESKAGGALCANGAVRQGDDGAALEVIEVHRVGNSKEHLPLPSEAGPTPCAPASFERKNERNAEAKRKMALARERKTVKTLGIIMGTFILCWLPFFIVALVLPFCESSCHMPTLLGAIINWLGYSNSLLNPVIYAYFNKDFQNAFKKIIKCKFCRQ

5-HT1A [2] = biological target: T2, 5-HT1A (Homo sapiens, UniProt P08908); test: BRET signaling assay: 5-HT1A-mediated activation of heterotrimeric Gi1 (TRUPATH, HEK293-T); details: for Efficacy as %5HT 5-HT1A BRET Gi1: Table 6, commercial ligands
[3] = Mouse brain tissue binding; assay type: in vitro ADME
5-HT2A [4] = biological target: T3, 5-HT2A (Homo sapiens, UniProt P28223); test: cell-based
5-HT2A [5] = biological target: T3, 5-HT2A
human 5-HT1A [6] = biological target: T1, human 5-HT1A; test: cell-based
5-HT1A [7] = biological target: T2, 5-HT1A; test: cell-based
5-HT2B = 5-HT2B (Homo sapiens, UniProt P41595); test: IP1 functional assay 5-HT2B; assay type: cell-based; details: for Emax: read-out: 5-HT2B (IP1) Emax (%5-HT), Table 3
5-HT2A [8] = biological target: T3, 5-HT2A; test: cell-based; design: expressed in transfected cells; host or cells: HEK293-T; details: for Emax: read-out: 5-HT2A (IP1) Emax (%5-HT)
[9] = EC50 (nM) Mean BRET Gq-2A, Table 2
[10] = EC50 (nM) Mean BRET Gi1-1A, Table 2
[11] = EC50 (nM) Mean Gio(cAMP)-1A, Table 2

T3 sequence (P28223 whole entry): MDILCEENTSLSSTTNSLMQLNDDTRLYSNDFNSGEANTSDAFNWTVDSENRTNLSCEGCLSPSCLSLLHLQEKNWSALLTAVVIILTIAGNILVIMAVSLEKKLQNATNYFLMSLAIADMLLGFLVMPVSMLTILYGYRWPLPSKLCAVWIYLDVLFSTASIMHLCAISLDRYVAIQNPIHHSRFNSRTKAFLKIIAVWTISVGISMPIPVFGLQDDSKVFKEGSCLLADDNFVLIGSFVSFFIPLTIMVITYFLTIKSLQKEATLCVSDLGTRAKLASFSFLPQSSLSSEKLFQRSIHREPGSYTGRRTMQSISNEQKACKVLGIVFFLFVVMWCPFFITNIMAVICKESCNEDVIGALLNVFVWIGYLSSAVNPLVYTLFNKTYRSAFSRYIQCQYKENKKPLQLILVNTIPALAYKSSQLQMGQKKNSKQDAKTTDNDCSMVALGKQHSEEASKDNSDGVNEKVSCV
Chain of 5-HT2B (P41595 whole entry, species assumed): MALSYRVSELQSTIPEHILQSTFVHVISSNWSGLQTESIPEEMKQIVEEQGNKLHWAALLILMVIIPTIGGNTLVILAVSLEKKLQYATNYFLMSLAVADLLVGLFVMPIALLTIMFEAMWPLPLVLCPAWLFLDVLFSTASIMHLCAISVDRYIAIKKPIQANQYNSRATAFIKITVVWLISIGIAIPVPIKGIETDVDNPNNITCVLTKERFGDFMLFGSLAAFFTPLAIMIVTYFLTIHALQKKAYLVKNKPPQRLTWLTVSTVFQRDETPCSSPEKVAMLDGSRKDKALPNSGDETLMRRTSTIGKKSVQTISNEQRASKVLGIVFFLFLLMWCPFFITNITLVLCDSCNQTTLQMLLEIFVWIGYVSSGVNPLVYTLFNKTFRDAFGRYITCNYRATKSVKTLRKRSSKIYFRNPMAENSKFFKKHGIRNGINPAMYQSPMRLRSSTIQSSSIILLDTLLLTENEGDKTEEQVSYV

## O=C1CC2(CCCC2)CC(=O)N1CCCCN1CCN(c2ncccn2)CC1 [Buspirone, buspirone, reference compound]
Human 5-HT1A [1]
  Efficacy as %5HT 5-HT1A cAMP: 96.0 %5HT
5-HT1A [2]; HEK-293T, read-out: Emax, 5-HT1A-mediated activation of Gi1 (BRET)
  Emax: 93.4%
5-HT1A [2]
  Efficacy as %5HT 5-HT1A BRET Gi1: 93.4 %5HT

## NC(=O)N1c2ccccc2C=Cc2ccccc21 [Carbamazepine]
[3]
  % Bound Mean: 88.2%
  % Recovery: 72%
  % Unbound: 11.8%
  fu: 0.118
[3]; 4 h
  % Compound remaining at 4 h: 96%
[3]; replicate R1
  % Bound R1: 89.0%

## COc1ccc2[nH]cc(CCN(C)C)c2c1F [Compound 1]
5-HT2A [4]; [9]
  EC50: 86.5 nM
Human 5-HT1A [1]; pEC50 Gio(cAMP)-1A, Table 2
  EC50: 0.186 nM
5-HT1A [2]; EC50 (nM) Mean BRET Gi1-1A
  EC50: 1.77 nM

## CCN(C)CCc1c[nH]c2ccc(OC)c(F)c12 [Compound 2]
5-HT2A [4]; [9]
  EC50: 99.3 nM
Human 5-HT1A [1]; pEC50 Gio(cAMP)-1A, Table 2
  EC50: 0.316 nM
5-HT1A [2]; [10]
  EC50: 1.77 nM

## CCN(CC)CCc1c[nH]c2ccc(OC)c(F)c12 [Compound 3]
5-HT2A [4]; [9]
  EC50: 673 nM
Human 5-HT1A [1]; [11]
  EC50: 0.21 nM
Human 5-HT1A [1]; pEC50 Gio(cAMP)-1A, Table 2
  EC50: 0.204 nM
5-HT1A [2]; [10]
  EC50: 3.18 nM

## CCCN(C)CCc1c[nH]c2ccc(OC)c(F)c12 [Compound 4]
5-HT2A [4]; [9]
  EC50: 115 nM
Human 5-HT1A [1]; pEC50 Gio(cAMP)-1A, Table 2
  EC50: 0.417 nM
5-HT1A [2]; [10]
  EC50: 3.06 nM

## NCCc1c[nH]c2ccc(O)cc12 [Compound 5-HT, 5-hydroxytryptamine, reference compound]
5-HT2A [5]; Table 2
  Normalized (%5HT) Top Mean BRET Gq-2A: 100.0 %5HT
5-HT2A [5]; Table 6, commercial ligands
  Efficacy as %5HT 5-HT2A BRET Gq: 100.0 %5HT
Human 5-HT1A [1]; Table 2
  Normalized (%5HT) Top Mean Gio(cAMP) 1A: 100.0 %5HT
Human 5-HT1A [1]
  Efficacy as %5HT 5-HT1A cAMP: 100.0 %5HT
5-HT1A [2]; Table 2
  Normalized (%5HT) Top Mean BRET Gi1-1A: 100.0 %5HT
5-HT1A [2]
  Efficacy as %5HT 5-HT1A BRET Gi1: 100.0 %5HT

## CCCN(CC)CCc1c[nH]c2ccc(OC)c(F)c12 [Compound 5]
5-HT2A [4]; [9]
  EC50: 155 nM
Human 5-HT1A [1]; pEC50 Gio(cAMP)-1A, Table 2
  EC50: 0.151 nM
5-HT1A [2]; [10]
  EC50: 0.95 nM

## CCCN(CCC)CCc1c[nH]c2ccc(OC)c(F)c12 [Compound 6]
5-HT2A [4]; [9]
  EC50: 142 nM
Human 5-HT1A [1]; [11]
  EC50: 1.31 nM
5-HT1A [2]; [10]
  EC50: 3.7 nM

## COc1ccc2[nH]cc(CCN(C)C(C)C)c2c1F [Compound 7]
5-HT2A [4]; [9]
  EC50: 152 nM
Human 5-HT1A [1]; [11]
  EC50: 2.98 nM
5-HT1A [2]; [10]
  EC50: 14.2 nM

## CCCN(CCc1c[nH]c2ccc(OC)c(F)c12)C(C)C [Compound 8]
5-HT2A [4]; [9]
  EC50: 249 nM
Human 5-HT1A [1]; [11]
  EC50: 5.96 nM
Human 5-HT1A [1]; pEC50 Gio(cAMP)-1A, Table 2
  EC50: 5.89 nM
5-HT1A [2]; [10]
  EC50: 16.8 nM
5-HT1A [2]; pEC50 BRET Gi1-1A, Table 2
  EC50: 16.6 nM

## CCN(C)CCc1c[nH]c2ccc(OC)cc12 [Compound 9]
5-HT2A [4]
  EC50: 37.7 nM
Human 5-HT1A [6]
  EC50: 4.44 nM
5-HT1A [7]
  EC50: 25.9 nM

## COc1ccc2[nH]cc(CCN(C(C)C)C(C)C)c2c1F [Compound 9]
5-HT2A [4]; [9]
  EC50: 338 nM
Human 5-HT1A [1]; [11]
  EC50: 6 nM
5-HT1A [2]; [10]
  EC50: 35.8 nM

## CCCN(C)CCc1c[nH]c2ccc(OC)cc12 [Compound 10, 5-MeO-MPT]
5-HT2B
  EC50: 100 nM
  Emax: 61%
5-HT2A [8]
  EC50: 79 nM
  Emax: 89%

## C=CCN(C)CCc1c[nH]c2ccc(OC)c(F)c12 [Compound 10]
5-HT2A [4]; [9]
  EC50: 156 nM
Human 5-HT1A [1]; [11]
  EC50: 2.57 nM
5-HT1A [2]; [10]
  EC50: 8.41 nM

## CCCN(C)CCc1c[nH]c2ccc(OC)cc12 [Compound 10]
5-HT2A [4]
  EC50: 28.3 nM
Human 5-HT1A [6]
  EC50: 18.6 nM
5-HT1A [7]
  EC50: 60.3 nM

## CCN(CC)CCc1c[nH]c2ccc(OC)cc12 [Compound 11]
5-HT2A [4]
  EC50: 172 nM
Human 5-HT1A [6]
  EC50: 11 nM
5-HT1A [7]
  EC50: 37.1 nM

## COc1ccc2[nH]cc(CCN3CCCC3)c2c1F [Compound 11]
5-HT2A [4]; [9]
  EC50: 300 nM
Human 5-HT1A [1]; [11]
  EC50: 0.03 nM
Human 5-HT1A [1]; pEC50 Gio(cAMP)-1A, Table 2
  EC50: 0.0282 nM
5-HT1A [2]; pEC50 BRET Gi1-1A, Table 2
  EC50: 0.372 nM

## CCCN(CC)CCc1c[nH]c2ccc(OC)cc12 [Compound 12]
5-HT2A [4]
  EC50: 22.1 nM
Human 5-HT1A [6]
  EC50: 2.47 nM
5-HT1A [7]
  EC50: 8.36 nM

## COc1ccc2[nH]cc(CCN3CCCCC3)c2c1F [Compound 12]
Human 5-HT1A [1]; [11]
  EC50: 2.42 nM
5-HT1A [2]; [10]
  EC50: 8.97 nM

## CCCN(CCC)CCc1c[nH]c2ccc(OC)cc12 [Compound 13, 5-methoxy-N,N-dipropyl-tryptamine]
5-HT2B
  EC50: 76 nM
  Emax: 108%
5-HT2A [8]
  EC50: 82 nM
  Emax: 94%
